Assay results as given in patent US8212016B2, “NPC1L1 orthologues” (Schering Corporation, priority 2006, dated 2012).
Read-outs that look alike come from different tables or passages of the source.

Experiments:
human NPC1L1 [1] = molecular target: T1, human NPC1L1 (Homo sapiens, UniProt Q9UHC9, T1073A); details: human NPC1L1, Garcia-Calvo et al. 2005; read-out: Kd, previously reported; cited from earlier work
T1 construct: expressed in transfected cells
T1 sequence (Q9UHC9 22-1332 isoform Q9UHC9-2 T1046A): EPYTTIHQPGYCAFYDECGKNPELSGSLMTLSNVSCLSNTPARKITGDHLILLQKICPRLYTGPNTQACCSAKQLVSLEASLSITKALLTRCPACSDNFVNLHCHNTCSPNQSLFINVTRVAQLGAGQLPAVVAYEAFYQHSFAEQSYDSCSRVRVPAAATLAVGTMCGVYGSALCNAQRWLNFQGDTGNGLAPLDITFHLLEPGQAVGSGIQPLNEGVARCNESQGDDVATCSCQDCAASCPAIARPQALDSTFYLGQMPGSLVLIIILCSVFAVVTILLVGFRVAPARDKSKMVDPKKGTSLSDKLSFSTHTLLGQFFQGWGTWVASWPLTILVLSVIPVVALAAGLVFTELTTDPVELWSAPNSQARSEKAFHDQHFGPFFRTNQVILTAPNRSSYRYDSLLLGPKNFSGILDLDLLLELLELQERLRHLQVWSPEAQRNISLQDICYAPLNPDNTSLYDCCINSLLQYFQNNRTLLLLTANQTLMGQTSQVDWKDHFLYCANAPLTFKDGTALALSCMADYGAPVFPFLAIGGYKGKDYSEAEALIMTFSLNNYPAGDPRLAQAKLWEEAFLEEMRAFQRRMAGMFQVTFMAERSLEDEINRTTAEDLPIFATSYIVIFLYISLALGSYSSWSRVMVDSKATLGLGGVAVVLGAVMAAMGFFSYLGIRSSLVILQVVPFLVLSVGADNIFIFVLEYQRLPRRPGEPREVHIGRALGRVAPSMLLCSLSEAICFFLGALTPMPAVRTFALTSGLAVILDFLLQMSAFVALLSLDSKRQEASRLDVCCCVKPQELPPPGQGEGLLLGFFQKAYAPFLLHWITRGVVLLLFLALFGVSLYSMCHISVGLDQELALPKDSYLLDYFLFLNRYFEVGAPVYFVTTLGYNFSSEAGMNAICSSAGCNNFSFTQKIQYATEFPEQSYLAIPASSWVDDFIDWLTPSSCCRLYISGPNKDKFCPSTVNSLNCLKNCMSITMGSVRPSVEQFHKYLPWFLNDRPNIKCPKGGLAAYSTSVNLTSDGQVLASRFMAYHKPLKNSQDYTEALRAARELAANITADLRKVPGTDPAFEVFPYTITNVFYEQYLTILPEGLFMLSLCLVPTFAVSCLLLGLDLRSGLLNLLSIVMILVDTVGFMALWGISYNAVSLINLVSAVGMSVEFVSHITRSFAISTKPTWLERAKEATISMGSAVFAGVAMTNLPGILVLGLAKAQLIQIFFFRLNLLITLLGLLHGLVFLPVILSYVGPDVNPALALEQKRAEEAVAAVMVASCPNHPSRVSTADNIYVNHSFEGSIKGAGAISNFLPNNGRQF

canine NPC1L1 = canine NPC1L1 (Canis lupus familiaris, UniProt A0MJA4); experiment: Fluorescence NPC1L1 binding assay, HEK-293 cells, BODIPY-labeled compound 1
Experimental: (§1) Cell Culture and Membrane Preparation. Each plasmid pCR3.1 harboring NPC1L1 was prepared using standard molecular biology protocols. Stable cell lines expressing human, rhesus monkey, mouse, rat, hamster, canine or rabbit NPC1L1 were generated using Lipofectamine 2000 transfection reagent in HEK-293 cells according to the manufacturer's protocol. Cells were maintained in DMEM supplemented with 10% FBS, 100 U/ml pen/strep, and 500 μg/ml geneticin at 37° C., 5% CO2. All cell culture reagents were obtained from Invitrogen Life Technologies, (Carlsbad, Calif.). Cell membranes were prepared by lysing cells in 5 mM HEPES with protease inhibitors (Complete™ Protease Inhibitor Cocktail Tablets; Roche Diagnostics Corp., Indianapolis Ind.) for 15 min at 4° C. A membrane pellet was obtained by centrifuging the cell lysates at 12,000×g for 25 min. The membranes were resuspended in 5 mM HEPES with protease inhibitors and triturated with a 21G needle.
(§2) Fluorescence. Cells were plated into 384-well black/clear plates (BD Biosciences, Bedford Mass.) for binding experiments the following day. The media was aspirated. […] Media (20 μl) containing the indicated concentration of compound was then added to the wells. […] The binding reaction was allowed to proceed for 4 hours at 37° C. Subsequently the media was aspirated and the cells washed once with PBS.

human NPC1L1 [2] = molecular target: T1, human NPC1L1; experiment: as above; details: Human NPC1L1, competition with compound 1; read-out: Ki
Experimental: as §1, §2

rat NPC1L1 = molecular target: T2, rat NPC1L1 (Rattus norvegicus, UniProt Q6T3U3, A349V/E317P/G318E/K324N/L297S); experiment: as above; details: Rat NPC1L1, competition with compound 1; read-out: Ki
T2 construct: expressed in transfected cells
Experimental: as §1, §2

rabbit NPC1L1 = rabbit NPC1L1 (Oryctolagus cuniculus, UniProt A0MJA7); experiment: as above
Experimental: as §1, §2

hamster NPC1L1 = hamster NPC1L1 (Mesocricetus auratus, UniProt A0MJA8); experiment: as above
Experimental: as §1, §2

monkey NPC1L1 = monkey NPC1L1 (Macaca mulatta, UniProt A0MJA5); experiment: Radioligand binding of [3H]-glucuronidated ezetimibe (compound 4) to cell membranes; set-up: species or system rhesus monkey
Experimental: (§3) Cell Culture and Membrane Preparation. […] Cells were maintained in DMEM supplemented with 10% FBS, 100 U/ml pen/strep, and 500 μg/ml geneticin at 37° C., 5% CO2. All cell culture reagents were obtained from Invitrogen Life Technologies, (Carlsbad, Calif.). Cell membranes were prepared by lysing cells in 5 mM HEPES with protease inhibitors (Complete™ Protease Inhibitor Cocktail Tablets; Roche Diagnostics Corp., Indianapolis Ind.) for 15 min at 4° C. A membrane pellet was obtained by centrifuging the cell lysates at 12,000×g for 25 min. […] Radioligand. […] Natl. Acad. Sci. […] Reactions were performed in binding buffer (5 mM HEPES, 5.5 mM glucose, 117 mM NaCl and 5.4 mM KCl, pH 7.4). Cell membranes (50 μg in 20 μl) were added to each well. […] Binding reactions were incubated for 2 hours at 37° C. Samples were transferred to Unifilter-96 GF/C plates (Perkin Elmer, Wellesley Mass.) and filtered using a Brandel harvester (Gaithersburg Md.). […] Liquid scintillant (50 μl; Microscint-20, Perkin Elmer, Wellesley Mass.) was added and the bound radioactivity was measured using a microplate scintillation counter.

human NPC1L1 [3] = molecular target: T1, human NPC1L1; experiment: as above
Experimental: as §3

Ki (canine NPC1L1; Canine NPC1L1, competition with compound 1, read-out: Ki): 192 nM | Ki (canine NPC1L1; Table 3, Dog, read-out: Ki Dog NPC1L1): 190 nM | Ki (human NPC1L1 [2]): 660 nM | Ki (rat NPC1L1): 352 nM | Ki (rabbit NPC1L1; Rabbit NPC1L1, competition with compound 1, read-out: Ki): 830 nM | Ki (rabbit NPC1L1; Table 3, Rabbit, read-out: Ki Rabbit NPC1L1): 830 nM | difference in affinity versus ezetimibe (compound 3) (rabbit NPC1L1; rabbit NPC1L1): less than 3 fold | Ki (hamster NPC1L1; Hamster NPC1L1, competition with compound 1, read-out: Ki): 370 nM | Ki (hamster NPC1L1; Table 3, Hamster, read-out: Ki Hamster NPC1L1): 371 nM | Kd (monkey NPC1L1): 102 nM | Kd (human NPC1L1 [3]): 206 nM
SMILES: O=C(O)[C@H]1O[C@@H](Oc2ccc([C@@H]3[C@@H](CC[C@H](O)c4ccc(F)cc4)C(=O)N3c3ccc(F)cc3)cc2)[C@H](O)[C@@H](O)[C@@H]1O [compound 4, glucuronidated ezetimibe]
Kd (human NPC1L1 [1]): 220 nM
